Experimental data taken from US20190008804A1 (Repros Therapeutics Inc., priority 2016, published 2019).
Read-outs that look alike come from different tables or passages of the source.

Experiments:
ERβ [1] = target: T1, ERβ (Homo sapiens, UniProt Q92731); experiment: Estrogen ERβ competitive radioligand binding with [3H]estradiol; parameters: made in house; host or cells: insect Sf9 cells
Method: IC50 values were determined by non-linear least squares regression analysis. […] The Hill coefficient (nH) defines the slope of the competitive binding curve and was determined using MathIQ™ (ID Business Solutions Ltd., UK).
Estrogen ERβ • Source: Human recombinant insect Sf9 cells
Target sequence in this assay (Q92731 264-498 limits assumed): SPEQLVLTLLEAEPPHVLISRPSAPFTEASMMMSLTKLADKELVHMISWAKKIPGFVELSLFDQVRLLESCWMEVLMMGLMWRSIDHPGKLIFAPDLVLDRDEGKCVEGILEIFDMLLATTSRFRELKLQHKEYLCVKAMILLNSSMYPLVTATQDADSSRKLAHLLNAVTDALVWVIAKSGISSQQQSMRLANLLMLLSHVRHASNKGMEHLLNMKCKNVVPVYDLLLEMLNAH

ERβ [2] = target: T1, ERβ; experiment: ERβ coactivator response; type: biochemical; parameters: concentration or dose not given beside the values
Target sequence in this assay (Q92731 whole entry): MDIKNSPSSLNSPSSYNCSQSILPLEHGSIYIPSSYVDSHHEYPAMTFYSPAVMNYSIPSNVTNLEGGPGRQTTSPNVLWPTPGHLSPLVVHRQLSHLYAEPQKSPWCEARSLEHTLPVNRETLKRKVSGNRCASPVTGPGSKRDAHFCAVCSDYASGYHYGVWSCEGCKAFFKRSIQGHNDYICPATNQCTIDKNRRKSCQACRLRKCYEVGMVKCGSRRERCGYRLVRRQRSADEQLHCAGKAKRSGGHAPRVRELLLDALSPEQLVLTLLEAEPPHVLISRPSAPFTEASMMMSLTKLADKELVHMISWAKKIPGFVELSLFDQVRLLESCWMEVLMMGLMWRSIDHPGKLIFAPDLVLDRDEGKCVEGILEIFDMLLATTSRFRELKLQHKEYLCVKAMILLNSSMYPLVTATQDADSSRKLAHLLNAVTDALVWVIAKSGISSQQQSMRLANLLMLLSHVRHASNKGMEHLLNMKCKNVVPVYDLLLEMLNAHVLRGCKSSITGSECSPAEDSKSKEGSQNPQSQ

ERβ [3] = target: T1, ERβ; details: reference compound, Estrogen ERβ; cited from earlier work
Target sequence in this assay (Q92731 264-498 limits assumed): as the sequence (Q92731 264-498 limits assumed) above

[4] = Co-administration of Proellex and Androxal in cycling female baboons, 180 days daily oral; type: in vivo; details: daily oral 180 days, Androxal 25 mg
Method: All treatment groups received daily oral administration of the appropriate capsule(s) for 180 days. Daily oral dosing was started in the luteal phase. […] Daily observations of estrus (heat) were conducted for all groups.

[5] = Bone calcium in female pigs after 180 days daily oral dosing; type: in vivo
Method: Active agents or placebo were administered after heat (estrus) in the luteal phase. […] All treatment groups received daily oral administration of the appropriate capsule(s) for 180 days. Daily general health observations and weekly body weight measurements were conducted for all groups. Following the 6 month administration period, calcium (parts per million (ppm) dry weight (dw)) was determined in rib and femur bone samples from pigs in each treatment group: […]

[6] = third of three separate radioligand binding studies, read-out: Receptor Binding ERβ IC50

CCNCCOc1ccc(/C(=C(/Cl)c2ccccc2)c2ccc(O)cc2)cc1 [4-OH-N-Desethyl enclomiphene, (E)-4-OH-desethyl Clomiphene]
IC50 (ERβ [1]; [6]): 450 pM | ERβ Coactivator Response Ant (antagonist) (ERβ [2]; second of two separate studies): 104%

CCN(CC)CCOc1ccc(/C(=C(/Cl)c2ccccc2)c2ccc(O)cc2)cc1 [4-OH-enclomiphene, (E)-4-OH-Clomiphene]
nH (Hill coefficient) (ERβ [1]; ERβ, hum): 1.56 | % Inh. (ERβ [1]; ERβ, hum, Conc. 0.9 nM): 67% | Ki (ERβ [1]; ERβ, hum, Cheng-Prusoff): 120 pM | IC50 (ERβ [1]; ERβ, hum, additional data, read-out: IC50): 570 pM | ligand preference ERα versus ERβ (ERβ [1]; based on binding and co-activator studies): better ligand for ERβ | IC50 (ERβ [1]; first of three separate radioligand binding studies, read-out: Receptor Binding ERβ IC50): 570 pM | IC50 (ERβ [1]; second of three separate radioligand binding studies, read-out: Receptor Binding ERβ IC50): 410 pM | ERβ Coactivator Response Ant (antagonist) (ERβ [2]; first of two separate studies): 60%

NCCOc1ccc(/C(=C(/Cl)c2ccccc2)c2ccccc2)cc1 [Di-de-ethyl-enclomiphene, (E)-di-desethyl Clomiphene]
ERβ Coactivator Response Ant (antagonist) (ERβ [2]; first of two separate studies): 87%

CC/C(=C(/CC)c1ccc(O)cc1)c1ccc(O)cc1 [Diethylstilbestrol]
Historical nH (ERβ [3]): 1.20

CCN(CC)CCOc1ccc(/C(=C(/Cl)c2ccccc2)c2ccccc2)cc1 [Enclomiphene, trans-clomiphene]
cycling [4]: prevented cycling | cycling of vaginal bleeding ([4]; Proellex 12 mg): stopped | swelling (turgesence) of the tissue around the tail under the control of estrogen ([4]; Proellex 12 mg): inhibited the swelling | ERβ Coactivator Response Ant (antagonist) (ERβ [2]; first of two separate studies): 65% | effect on calcium content of bone ([5]; female pigs, daily oral 180 days): did not affect the calcium content of bone | Ca (ppm dw), Mean ([5]; rib and femur bone samples, female pigs n = 3, daily oral 180 days, Proellex 12 mg, Androxal 25 mg): 139300.00 ppm dw

CC[N+]([O-])(CC)CCOc1ccc(/C(=C(/Cl)c2ccccc2)c2ccccc2)cc1 [Enclomiphene-NO, (E)-Clomiphene-NO]
ERβ Coactivator Response Ant (antagonist) (ERβ [2]; first of two separate studies): 95%

CCNCCOc1ccc(/C(=C(/Cl)c2ccccc2)c2ccccc2)cc1 [N-Desethyl enclomiphene, (E)-desethyl Clomiphene]
IC50 (ERβ [1]; [6]): 1130 pM | ERβ Coactivator Response Ant (antagonist) (ERβ [2]; second of two separate studies): 74%

COCC(=O)[C@@]1(OC(C)=O)CC[C@H]2[C@@H]3CCC4=CC(=O)CCC4=C3[C@@H](c3ccc(N(C)C)cc3)C[C@@]21C [Proellex, 21-methoxy-17α-acetoxy-11β-(4 N, N-dimethylaminophenyl)-19-norpregna-4,9-diene-3,20-dione]
cycling of vaginal bleeding ([4]; Proellex 12 mg): stopped | endometrial thickness ([4]; Proellex 12 mg): increase in endometrial thickness | swelling (turgesence) of the tissue around the tail under the control of estrogen ([4]; Proellex 12 mg): not proellex alone inhibited the swelling | effect on calcium content of bone ([5]; pig, in vivo, po): did not affect the calcium content of bone
